{
  "source": "patent US20100035848A1",
  "about": "“THERAPY FOR DISORDERS OF THE PROXIMAL DIGESTIVE TRACT” (priority 2008, published 2010)",
  "key": {"[1]": {"tested_on": "NF-κB dependent transcription", "assay": "In vivo imaging of basal NF-κB dependent transcription in NF-κB::Luc reporter mice", "design": "species or system mouse", "details": "male NF-κB::Luc mice, 4 hours, FIG. 2", "method": "GL1001 was tested for in vivo anti-inflammatory activity by examining its effects on basal levels of NF-κB dependent transcription in mice engineered in the germline with a construct containing an NF-κB enhancer linked to a luciferase gene (i.e., NF-κB::Luc mice), such that this NE-κB reporter construct is present in all cells of the mice.\nMore particularly, transgenic NF-κB::Luc mice were generated using three NF-κB response elements from the Igκ light chain promoter fused to a firefly luciferase gene as described by Carlsen et al. (2002) J. Immunol. 168:1441-1446. Pronuclear microinjection of purified construct DNA was used to generate transgenic founders in the C57BL/6 XCBA/J background. Founders were subsequently back-crossed to the C57BL/6 albino background. […] Signal data were also quantitated and archived using the Living Image® software. Photons of light were quantitated using an oval region of interest (ROI) of varying sizes depending on the procedure, as described further below.\nTo test for in vivo effects of GL1001 on basal levels of NF-κB dependent transcription, male NF-κB::Luc mice were subjected to quantitative in vivo imaging of the abdominal area (using a fixed ROT of 2.76×3.7 cm) as described above, immediately before, and at 2, […]"}, "[2]": {"tested_on": "activator protein-1 (AP-1)", "assay": "In vivo basal reporter luciferase expression in AP-1::Luc mice", "design": "species or system mouse", "details": "data not shown"}, "[3]": {"tested_on": "LPS-induced NF-κB dependent transcription", "assay": "In vivo imaging of LPS-induced NF-κB dependent transcription in NF-κB::Luc mice", "design": "species or system mouse", "description": "More particularly, transgenic NF-κB::Luc mice were generated using three NF-κB response elements from the Igκ light chain promoter fused to a firefly luciferase gene as described by Carlsen et al. (2002) J. Immunol. 168:1441-1446. Pronuclear microinjection of purified construct DNA was used to generate transgenic founders in the C57BL/6 XCBA/J background. Founders were subsequently back-crossed to the C57BL/6 albino background. All experimental protocols were approved by the Institutional Animal Care and Use Committee and conform to the ILAR guide for the care and used of laboratory animals. For in vivo imaging, NF-κB::Luc mice were injected intraperitoneally with luciferin (150 mg/1 kg) 10 minutes before imaging, anesthetized (using 1-3% isoflurane) and placed into a light-tight camera box. […] Signal data were also quantitated and archived using the Living Image® software. Photons of light were quantitated using an oval region of interest (ROI) of varying sizes depending on the procedure, as described further below.\nGL1001 was further tested for in vivo anti-inflammatory activity by examining its effects on bacterial LPS-induced NF-κB dependent transcription in NF-κB::Luc mice. […] Mice were subjected to quantitative abdominal imaging at 2, 4 and 6 hours following LPS administration, as described above. […] Luciferase signal was quantitated from several regions of interest. […]"}, "[4]": {"tested_on": "diclofenac-induced gastric damage", "assay": "Acute diclofenac-induced gastric toxicity in rats: gastric damage score", "format": "in vivo, rat", "details": "Group C: GL1001 90 mg/kg oral gavage 30 min before diclofenac 50 mg/kg oral, 3 h; vehicle-diclofenac Group B 17.80 ± 5.08; p<0.02", "method": "(§1) Male Wistar rats were deprived of food but not water for 16 hours prior to oral administration of GL1001 90 mg/kg, incubated for 30 minutes and then given oral diclofenac 50 mg/kg. Each group consisted of 6 rats. As a negative control, one group received vehicle pretreatment, and then received vehicle instead of diclofenac. A positive control group received PGE2 100 μg/kg orally, 30 minutes prior to administration of diclofenac. All treatments were administered by oral gavage.\n(§2) Three hours after diclofenac treatment, all animals were sacrificed and stomachs were removed and imaged to determine the severity of gastric damage. Additionally, stomach tissue samples were taken to assess disease activity and pharmacodynamic effects. Gastric damage scores were determined from photographic images (Ma & Wallace (2003) Am. J. Physiol. Gastrointest. Liver Physiol. 279; 341-346). Removed stomachs were opened along the greater curvature, pinned out on a wax block, and photographed along a 25 mm ruler reference with a digital 35 mm camera. The lesion area was then determined using enlarged images and computer software (www.scioncorp.co/pages/scion_image_windows.htm) that allows superimposed drawing of the perimeter of a wound and calculation of the area based on the ruler reference. Stomach samples (excluding forestomach) were used for measurements of PGE2 concentration, MPO activity and ACE2 activity. PRE2 determinations are used in this study as a hiomarker of diclofenac effect since its mechanism of action involves inhibition of cyclooxygenase (COX-2 and COX-1) enzymes which in turn results in inhibition of PGE2 synthesis. Concentration of PGE2 from stomach tissue samples was performed as described by Souza et al. (2003), supra, and quantification was obtained by LC-MS. MTO, an enzyme found in abundance in granulocytes, is used as a biochemical marker of tissue inflammation. When tissues undergo inflammatory processes, granulocytes are recruited to the site of inflammation and infiltrate the affected tissue giving rise to increase MPO activity (Souza et al. (2003), supra). Last, the extent of inhibition of ACE2 activity was determined to establish whether GL1001 was effective in inhibiting its ACE2 target in stomach tissues. The ACE2 activity assay is similar to the method of Vickers et al. (2002) J. Biol. Chem. 277:14838-14843, wherein purified recombinant ACE2 (100 pM) and a quenched fluorescent substrate (100-150 μM APK (7-methoxycoumarin-4-yl)acetyl-Ala-Pro-Lys (2,4-dinitrophenyl)) are used in end-point fluorescence reactions (excitation 320 nm, emission 405 nm). For stomach ACE2 measurements, tissues were homogenized in the presence of a general protease inhibitor (PMSF) and specific ACE inhibitors. […]\n(§3) Data are expressed as means with standard errors. […]"}, "[5]": {"target": "T1, ACE2 (Rattus norvegicus, UniProt Q5EGZ1)", "T1 construct": "from tissue; host or cells: rat stomach (excluding forestomach) homogenate", "T1 sequence (Q5EGZ1 18-805)": "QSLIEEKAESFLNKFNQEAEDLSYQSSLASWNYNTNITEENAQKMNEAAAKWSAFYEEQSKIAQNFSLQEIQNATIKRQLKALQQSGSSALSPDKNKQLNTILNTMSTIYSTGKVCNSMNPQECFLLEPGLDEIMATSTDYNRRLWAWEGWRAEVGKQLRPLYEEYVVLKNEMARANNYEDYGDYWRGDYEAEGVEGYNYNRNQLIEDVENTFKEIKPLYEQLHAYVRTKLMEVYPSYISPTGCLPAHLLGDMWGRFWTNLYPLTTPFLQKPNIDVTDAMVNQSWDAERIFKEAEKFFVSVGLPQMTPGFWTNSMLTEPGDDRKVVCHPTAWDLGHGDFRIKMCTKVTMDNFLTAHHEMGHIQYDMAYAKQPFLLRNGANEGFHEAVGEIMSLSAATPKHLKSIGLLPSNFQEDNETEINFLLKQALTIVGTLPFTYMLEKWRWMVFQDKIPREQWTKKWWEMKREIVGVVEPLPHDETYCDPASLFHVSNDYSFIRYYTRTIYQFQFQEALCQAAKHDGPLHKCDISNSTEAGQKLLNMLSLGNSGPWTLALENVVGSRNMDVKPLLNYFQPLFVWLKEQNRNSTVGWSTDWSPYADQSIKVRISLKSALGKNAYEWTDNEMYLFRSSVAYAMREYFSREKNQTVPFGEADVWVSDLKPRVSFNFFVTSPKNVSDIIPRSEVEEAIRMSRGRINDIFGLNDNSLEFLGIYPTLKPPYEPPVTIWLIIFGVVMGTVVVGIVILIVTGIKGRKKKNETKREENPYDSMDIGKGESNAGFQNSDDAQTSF", "assay": "Acute diclofenac-induced gastric toxicity in rats: ACE2 activity in stomach tissue", "format": "in vivo", "details": "Group C: GL1001 oral before diclofenac 50 mg/kg; vehicle-diclofenac Group B 880 ± 39; p<0.0001", "method": "as §1\nas §2, with “PRE2 determinations are used in this study as a hiomarker of diclofenac effect since its mechanism of action involves inhibition of cyclooxygenase (COX-2 and COX-1) enzymes which in turn results in inhibition of PGE2 synthesis.” left out, “MTO, an enzyme found in abundance in granulocytes, is used as a biochemical marker of tissue inflammation. When tissues undergo inflammatory processes, granulocytes are recruited to the site of inflammation and infiltrate the affected tissue giving rise to increase MPO activity (Souza et al. (2003), supra).” left out, “nm).” for “nm). For stomach ACE2 measurements, tissues were homogenized in the presence of a general protease inhibitor (PMSF) and specific ACE inhibitors.”\nas §3"}},
  "note": "Values joined by “and” are separate entries in the source; they are usually repeats but may differ in a detail not shown here. Identical values can stand only once.",
  "data": [
    {"smiles": "CC(C)C[C@H](N[C@@H](Cc1cncn1Cc1cc(Cl)cc(Cl)c1)C(=O)O)C(=O)O", "note": "[GL1001, (S,S)-2-[1-carboxy-2-[3-(3,5-dichlorobenzyl)-3H-imidazol-4-yl]-ethylamino]-4-methylpentanoic acid]", "values": [
      {"measurement": "inhibition of basal in vivo levels of NF-κB dependent transcription in abdominal ROI", "setting": "[1]; 300 mg/kg s.c., p<0.01", "result": "over 40%"},
      {"measurement": "inhibition of basal in vivo levels of NF-κB dependent transcription in abdominal ROI", "setting": "[1]; both lower doses s.c.", "result": "lesser but still significant extents"},
      {"measurement": "effect on basal in vivo levels of reporter luciferase expression", "setting": "[2]", "result": "no significant effect"},
      {"measurement": "LPS induced NF-κB signaling response, abdominal region", "setting": "[3]; GL1001 30, 100 and 300 mg/kg s.c. 1 hour before LPS i.v., FIG. 3", "result": "significantly reduced"},
      {"measurement": "LPS-induced NF-κB signaling, abdominal region", "setting": "[3]; repeat with dose range 3-100 mg/kg s.c., effect at 30 and 100 mg/kg, FIG. 4", "result": "significantly reduced"},
      {"measurement": "Gastric damage score", "setting": "[4]", "result": "2.6 and 2.63 ± 0.87"},
      {"measurement": "Gastric ACE2 activity", "setting": "[5]", "result": "436 pmol/mg and 436 ± 20 pmol/mg"}
    ]}
  ]
}
